Reference: patent publication EP2508198B1, “Peptides for suppressing inflammation reactions in hemodialysis” (Fresenius Medical Care Deutschland GmbH, priority 2011, dated 2014)
Residues, ends and D or L forms follow the SMILES beside them.

Experiments:
[1] = system: LPS-induced TNF-α release; assay: Ex vivo stimulation of human PBMCs with LPS (pre-incubation or co-stimulation with peptides), TNF-α ELISA of supernatants; assay type: cell-based; set-up: TNF-α, Donor 2 / TNF-α, Donor 3 / TNF-α, Donor 4 / TNF-α, Donor 5 / TNF-α, Donor 6 / TNF-α, MV+SD: unit not given here; details: for TNF-α, %: % of LPS control c (100.00); for effect on LPS-induced TNF-α release ("inflammation"): pre-stimulation or co-incubation
Protocol: Ex vivo stimulation of human peripheral blood mononuclear cells (PBMCs)
For the stimulation of PBMCs the following concentrations were chosen: • LPS 1 ng/ml alone • α-MSH • ∘ 1µM; 10µM; 100µM • Peg-KPV (pegylated tripeptide) • ∘ 1µM; 10µM; 100µM; 1000µM
The stimulation procedure was as described below:
All cells were incubated for 24h and centrifuged at 1700 rpm and supernatants were used for TNF- α ELISA measurement according to manufacturer's protocols.

TNF-α = assay: Whole blood from uremic patients stimulated ex vivo with LPS with or without peptides (non heated and heated), TNF-α ELISA; assay type: cell-based, human; details: whole blood of uremic patients, LPS 1 ng/ml, 24 h; average over the tested concentrations
Protocol: (§1) Whole blood studies with blood from uremic patients including heat sterilization experiments
(§2) A first goal of this experiment was to test whether the three amino acid antiinflammatory peptide KPV (unpegylated and pegylated version "monopeptide") will retain its activity under conditions of steam sterilization at 125°C for 15 min used in the production process of dialysis modules. A second goal was to study the anti-inflammatory effect of alpha-MSH and the peptides in uremic patients, which represent the real clinical situation.
(§3) To perform this experiment whole blood samples were taken from voluntary uremic patients (n=10) and subsequently stimulated ex vivo with lipopolysaccharide (LPS) with or without alpha-MSH, KPV or pegylated KPV (non heated and heated) and TNF-α and IL-6 release was determined by ELISA.
(§4) 25 ml blood from 10 uremic patients (dialysis patients treated at the hospital in Konstanz, Germany) was drawn and blood values were analyzed immediately. Blood was 1:10 diluted with PBS buffer and each stimulation condition was performed in triplicates and incubated at 200 µl in 96 well plates. […]

IL-6 = assay: Whole blood from uremic patients stimulated ex vivo with LPS with or without peptides (non heated and heated), IL-6 ELISA; assay type: cell-based, human; details: whole blood of uremic patients, LPS 1 ng/ml, 24 h; average over the tested concentrations
Protocol: as §1, §2, §3, §4

[2] = LPS 3 h pre-incubation, then LPS+peptide 24h, peptide 1 µM
[3] = LPS 3 h pre-incubation, then LPS+peptide 24h, peptide 10 µM
[4] = LPS 3 h pre-incubation, then LPS+peptide 24h, peptide 100 µM
[5] = LPS 3 h pre-incubation, then LPS+peptide 24h, peptide 1000 µM
[6] = LPS + peptide simultaneously, 24h, peptide 1 µM
[7] = LPS + peptide simultaneously, 24h, peptide 10 µM
[8] = LPS + peptide simultaneously, 24h, peptide 100 µM
[9] = LPS + peptide simultaneously, 24h, peptide 1000 µM
[10] = mean of donors, LPS 3 h pre-incubation, then LPS+peptide 24h, peptide 1 µM
[11] = mean of donors, LPS 3 h pre-incubation, then LPS+peptide 24h, peptide 10 µM
[12] = mean of donors, LPS 3 h pre-incubation, then LPS+peptide 24h, peptide 100 µM
[13] = mean of donors, LPS + peptide simultaneously, 24h, peptide 1 µM
[14] = mean of donors, LPS + peptide simultaneously, 24h, peptide 10 µM
[15] = mean of donors, LPS + peptide simultaneously, 24h, peptide 100 µM

Question: Which results are given for `CC(=O)N[C@@H](CCCCN)C(=O)N1CCC[C@H]1C(=O)N[C@H](C(N)=O)C(C)C` [KPV, Ac-Lys-Pro-Val-NH2] (Ac-Lys-Pro-Val-NH2)?
Answer: TNF-α, % [1, 2]: 85.28%; TNF-α, % [1, 3]: 83.53%; TNF-α, % [1, 4]: 73.40%; TNF-α, % [1, 5]: 38.98%; TNF-α, % [1, 6]: 78.64%; TNF-α, % [1, 7]: 74.30%; TNF-α, % [1, 8]: 65.76%; TNF-α, % [1, 9]: 25.35%; TNF-α, Donor 2 [1, 2]: 4025; TNF-α, Donor 3 [1, 2]: 4554; TNF-α, Donor 4 [1, 2]: 3541; TNF-α, Donor 5 [1, 2]: 2301; TNF-α, Donor 6 [1, 2]: 4299; TNF-α, Donor 2 [1, 3]: 4126; TNF-α, Donor 3 [1, 3]: 4387; TNF-α, Donor 4 [1, 3]: 3666; TNF-α, Donor 5 [1, 3]: 2209; TNF-α, Donor 6 [1, 3]: 3949; TNF-α, Donor 2 [1, 4]: 3542; TNF-α, Donor 3 [1, 4]: 5022; TNF-α, Donor 4 [1, 4]: 2886; TNF-α, Donor 5 [1, 4]: 1931; TNF-α, Donor 6 [1, 4]: 3731; TNF-α, Donor 3 [1, 5]: 1816; TNF-α, Donor 4 [1, 5]: 1494; TNF-α, Donor 5 [1, 5]: 1054; TNF-α, Donor 6 [1, 5]: 2482; TNF-α, Donor 2 [1, 6]: 3426; TNF-α, Donor 3 [1, 6]: 3955; TNF-α, Donor 4 [1, 6]: 3702; TNF-α, Donor 5 [1, 6]: 1893; TNF-α, Donor 6 [1, 6]: 3541; TNF-α, Donor 2 [1, 7]: 3154; TNF-α, Donor 3 [1, 7]: 3907; TNF-α, Donor 4 [1, 7]: 3369; TNF-α, Donor 5 [1, 7]: 1706; TNF-α, Donor 6 [1, 7]: 3470; TNF-α, Donor 2 [1, 8]: 2562; TNF-α, Donor 3 [1, 8]: 3505; TNF-α, Donor 4 [1, 8]: 3077; TNF-α, Donor 5 [1, 8]: 1525; TNF-α, Donor 6 [1, 8]: 3142; TNF-α, Donor 3 [1, 9]: 931; TNF-α, Donor 4 [1, 9]: 934; TNF-α, Donor 5 [1, 9]: 594; TNF-α, Donor 6 [1, 9]: 1801; TNF-α, MV+SD ([1]; mean of donors (Donor 2 not done), LPS 3 h pre-incubation, then LPS+peptide 24h, peptide 1000 µM): 1711.5; TNF-α, MV+SD ([1]; mean of donors (Donor 2 not done), LPS + peptide simultaneously, 24h, peptide 1000 µM): 1065; TNF-α, MV+SD [1, 10]: 3744; TNF-α, MV+SD [1, 11]: 3667.4; TNF-α, MV+SD [1, 12]: 3222.4; TNF-α, MV+SD [1, 13]: 3303.4; TNF-α, MV+SD [1, 14]: 3121.2; TNF-α, MV+SD [1, 15]: 2762.2; effect on LPS-induced TNF-α release ("inflammation") [1]: inhibitory effect; average inhibition for TNF-α (TNF-α): around 30%; average inhibition for IL-6 (IL-6): around 20%

Question: Which “TNF-α, %” value [1, 2] does the source give for α-MSH [α-MSH Sigma] here?
Answer: 89.62%

Question: What about the “TNF-α, %” value [1, 3] of the same molecule?
Answer: 81.56%

Question: What about the “TNF-α, %” value [1, 4] of the same molecule?
Answer: 54.57%

Question: And the “TNF-α, %” value [1, 6]?
Answer: 70.97%

Question: What about the “TNF-α, %” value [1, 7] of the same molecule?
Answer: 61.67%

Question: What about the “TNF-α, %” value [1, 8] of the same molecule?
Answer: 32.86%

Question: What about the “TNF-α, Donor 2” value [1, 2] of the same molecule?
Answer: 5005

Question: And the “TNF-α, Donor 3” value [1, 2]?
Answer: 4345

Question: And the “TNF-α, Donor 4” value [1, 2]?
Answer: 3968

Question: What about the “TNF-α, Donor 5” value [1, 2] of the same molecule?
Answer: 2070

Question: And the “TNF-α, Donor 6” value [1, 2]?
Answer: 4286

Question: And the “TNF-α, Donor 2” value [1, 3]?
Answer: 4193

Question: What about the “TNF-α, Donor 3” value [1, 3] of the same molecule?
Answer: 3883

Question: What about the “TNF-α, Donor 4” value [1, 3] of the same molecule?
Answer: 3674

Question: What about the “TNF-α, Donor 5” value [1, 3] of the same molecule?
Answer: 1799

Question: And the “TNF-α, Donor 6” value [1, 3]?
Answer: 4356

Question: What about the “TNF-α, Donor 2” value [1, 4] of the same molecule?
Answer: 3009

Question: What about the “TNF-α, Donor 3” value [1, 4] of the same molecule?
Answer: 2886

Question: And the “TNF-α, Donor 4” value [1, 4]?
Answer: 2073

Question: What about the “TNF-α, Donor 5” value [1, 4] of the same molecule?
Answer: 942

Question: And the “TNF-α, Donor 6” value [1, 4]?
Answer: 2069

Question: And the “TNF-α, Donor 2” value [1, 6]?
Answer: 4098

Question: And the “TNF-α, Donor 3” value [1, 6]?
Answer: 3273

Question: What about the “TNF-α, Donor 4” value [1, 6] of the same molecule?
Answer: 3116

Question: What about the “TNF-α, Donor 5” value [1, 6] of the same molecule?
Answer: 1319

Question: What about the “TNF-α, Donor 6” value [1, 6] of the same molecule?
Answer: 3100

Question: What about the “TNF-α, Donor 2” value [1, 7] of the same molecule?
Answer: 3734

Question: And the “TNF-α, Donor 3” value [1, 7]?
Answer: 2776

Question: What about the “TNF-α, Donor 4” value [1, 7] of the same molecule?
Answer: 2568

Question: What about the “TNF-α, Donor 5” value [1, 7] of the same molecule?
Answer: 1237

Question: What about the “TNF-α, Donor 6” value [1, 7] of the same molecule?
Answer: 2638

Question: What about the “TNF-α, Donor 2” value [1, 8] of the same molecule?
Answer: 1207

Question: What about the “TNF-α, Donor 3” value [1, 8] of the same molecule?
Answer: 2337

Question: And the “TNF-α, Donor 4” value [1, 8]?
Answer: 1248

Question: And the “TNF-α, Donor 5” value [1, 8]?
Answer: 713

Question: And the “TNF-α, Donor 6” value [1, 8]?
Answer: 1386

Question: What about the “TNF-α, MV+SD” value [1, 10] of the same molecule?
Answer: 3934.8

Question: And the “TNF-α, MV+SD” value [1, 11]?
Answer: 3581

Question: And the “TNF-α, MV+SD” value [1, 12]?
Answer: 2395.8

Question: And the “TNF-α, MV+SD” value [1, 13]?
Answer: 2981.2

Question: What about the “TNF-α, MV+SD” value [1, 14] of the same molecule?
Answer: 2590.6

Question: And the “TNF-α, MV+SD” value [1, 15]?
Answer: 1380.2

Question: What about the “effect on LPS-induced TNF-α release ("inflammation")” value [1] of the same molecule?
Answer: inhibitory effect
